Reference: US20250161285A1, “BACTERIAL BIOFILM INHIBITORS” (THE RESEARCH INSTITUTE AT NATIONWIDE CHILDREN'S HOSPITAL, priority 2022, published 2025)

Legend:
[1] = tested on: S. Typhimurium ATCC 14028 (JSG210) biofilms; experiment: Biofilm inhibition assay (crystal violet staining); assay type: cell-based, Salmonella enterica serovar Typhimurium; conditions: for IC50: inhibition of S. Typhimurium biofilm formation, compound present 24 h, crystal violet OD570, mean ± standard deviation; for anti-biofilm activity (inhibition and dispersion) in words: S. Typhimurium biofilms in vitro; for fold improvement of IC50 versus comparator: 6a vs 4c, 6b vs 4d, 6g vs 4c and 4d, 8i vs 8b
Description: Inhibition of biofilm formation is assessed by growing bacteria in a 96-well plate in the absence (control) or presence of test compounds. After 24 hours, the wells are washed to remove planktonic bacteria, and the remaining surface attached bacteria (biofilm) are stained with crystal violet (CV). The wells are then washed again to remove excess CV, and the remaining CV is solubilized with a solution of acetic acid and then quantified by spectrophotometry at 570 nm. A dose response curve is then constructed from which an IC50 value is determined.
(§1) Salmonella biofilm growth and crystal violet staining. […] For biofilm assays, individual bacterial colonies were picked and used to inoculate LB broth for overnight liquid cultures, which were grown at 37° C. with aeration using a rotating drum. […] Biofilm plates were then submerged in dH2O to wash away any remaining non-adherent bacteria and heat fixed (1h, 60° C.). Biofilms were then stained with a 33% crystal violet solution (6 mL PBS, 3.3 mL crystal violet, 333 μL methanol, 333 μL isopropanol) for 5 min. and washed twice by submerging in dH2O before releasing the bound dye with 33% glacial acetic acid. Biofilm growth was then quantified by measuring the optical density of the solubilized dye at 570 nm using a spectrophotometer (Molecular Devices, SpectraMax M5).
(§2) Biofilm Inhibition and Dispersion Assays and IC50/EC50 Determination. […] Biofilms were then grown as described above for a total of 24 h prior to CV staining. […] Biofilms were then incubated for an additional 24 h in the presence of compounds prior to CV staining. IC50/EC50 values were calculated by plotting normalized compound activity (percent biofilm formed and percent remaining, respectively) as a function of log10 compound concentration and fitting a dose response curve (log[inhibitor] vs. normalized response, variable slope).

[2] = tested on: S. Typhimurium ATCC 14028 (JSG210) biofilms; experiment: Biofilm dispersion assay on pre-formed biofilms (crystal violet staining); assay type: cell-based, Salmonella enterica serovar Typhimurium; conditions: for EC50: 50% dispersion of biofilms established 24 h, then 24 h with compound, crystal violet OD570, mean ± standard deviation; for fold improvement of dispersion activity (EC50) versus comparator: 4d vs 1, 6g vs 4c and 4d, lead compounds vs parent compound
Description: as §1, §2

Compound	IC50 [1]	EC50 [2]	also measured
CN(Cc1ccccc1)CC1CCN(CCc2ccccc2F)CC1 [Compound 3.1a]	5 µM	> 75 µM	–
Cc1ccccc1CN(C)CC1CCN(CCc2ccccc2F)CC1 [Compound 3.1b]	4.4 µM	> 75 µM	–
CN(Cc1ccccc1F)CC1CCN(CCc2ccccc2F)CC1 [Compound 3.1c]	14.9 µM	> 75 µM	–
CN(Cc1ccccc1Cl)CC1CCN(CCc2ccccc2F)CC1 [Compound 3.1d]	6.3 µM	> 75 µM	–
CN(Cc1ccccc1Br)CC1CCN(CCc2ccccc2F)CC1 [Compound 3.1e]	6.5 µM	42 µM	–
CN(Cc1ccccc1I)CC1CCN(CCc2ccccc2F)CC1 [Compound 3.1f]	4.4 µM	53 µM	–
CN(Cc1cccc(Cl)c1)CC1CCN(CCc2ccccc2F)CC1 [Compound 3.1h]	5.6 µM	> 75 µM	–
CN(Cc1ccc(F)cc1)CC1CCN(CCc2ccccc2F)CC1 [Compound 3.1i]	5.5 µM	> 75 µM	–
CN(Cc1cccc(Cl)c1Cl)CC1CCN(CCc2ccccc2F)CC1 [Compound 3.1l]	5.6 µM	43 µM	–
CN(Cc1ccccc1)CC1CCN(CCc2ccc(Cl)c(Cl)c2)CC1 [Compound 3.2a]	0.59 µM	35 µM	–
CN(Cc1ccccc1I)CC1CCN(CCc2ccc(Cl)c(Cl)c2)CC1 [Compound 3.2d]	3.4 µM	26 µM	–
CN(Cc1cccc(Cl)c1)CC1CCN(CCc2ccc(Cl)c(Cl)c2)CC1 [Compound 3.2f]	2.3 µM	21 µM	–
CN(Cc1ccc(Cl)c(Cl)c1)CC1CCN(CCc2ccc(Cl)c(Cl)c2)CC1 [Compound 3.2h]	0.96 µM	17 µM	–
CN(Cc1ccccc1)CC1CCN(CCc2ccc(Cl)cc2Cl)CC1 [Compound 3.3a]	4.3 ± 2.1 µM	11 ± 7 µM	–
CN(Cc1ccccc1Cl)CC1CCN(CCc2ccc(Cl)cc2Cl)CC1 [Compound 3.3c]	11.3 ± 7.3 µM	14 ± 10 µM	–
CN(Cc1ccccc1I)CC1CCN(CCc2ccc(Cl)cc2Cl)CC1 [Compound 3.3d]	10.1 ± 4.5 µM	> 50 µM	–
CN(Cc1cccc(Cl)c1Cl)CC1CCN(CCc2ccc(Cl)cc2Cl)CC1 [Compound 3.3i]	6.5 ± 2.5 µM	8 ± 4 µM	–
CN(Cc1cccc2ccccc12)CC1CCN(CCc2ccccc2F)CC1 [Compound 3.4a]	4.2 ± 2.9 µM	12 ± 8 µM	–
CN(Cc1ccccn1)CC1CCN(CCc2ccccc2F)CC1 [Compound 3.8a]	> 20 µM	> 50 µM	–
CN(Cc1ccncc1)CC1CCN(CCc2ccccc2F)CC1 [Compound 3.8c]	> 20 µM	> 50 µM	–
CN(Cc1ccsc1)CC1CCN(CCc2ccccc2Cl)CC1 [Compound 4a]	6 ± 1.4 µM	232 ± 6 µM	–
CN(Cc1ccsc1)CC1CCN(CCc2ccccc2Br)CC1 [Compound 4b]	7.2 ± 1.6 µM	308 ± 11 µM	–

Compound	IC50 [1]	EC50 [2]	also measured
CN(Cc1ccsc1)CC1CCN(CCc2cccc(F)c2)CC1 [Compound 4c]	6.9 ± 0.1 µM	388 ± 19 µM	–
CN(Cc1ccsc1)CC1CCN(CCc2ccc(F)cc2)CC1 [Compound 4d]	16.8 ± 3.4 µM	235 µM	fold improvement of dispersion activity (EC50) versus comparator [2]: ca. 3.5
CN(Cc1ccsc1)CC1CCN(CCc2cc(F)cc(F)c2)CC1 [Compound 4e]	> 200 µM	> 12000 µM	anti-biofilm activity (inhibition and dispersion) in words [1]: inactive
COc1ccccc1CCN1CCC(CN(C)Cc2ccsc2)CC1 [Compound 4f]	16.9 ± 5.2 µM	11760 ± 77 µM	–
CN(Cc1ccsc1)CC1CCN(CCc2ccccc2)CC1 [Compound 4g]	21.2 ± 2.6 µM	> 12000 µM	–
CNCC1CCN(CCc2ccccc2F)CC1 [Compound 5]	–	–	anti-biofilm activity (inhibition and dispersion) in words [1]: abrogated activity; IC50 ([1]; Salmonella enterica): > 200 µM; EC50 ([2]; Salmonella enterica): > 12000 µM
CN(Cc1ccsc1)CC1CCN(CCc2cccc(Cl)c2)CC1 [Compound 6a]	2 µM	135 ± 12 µM	fold improvement of IC50 versus comparator [1]: over two-fold
CN(Cc1ccsc1)CC1CCN(CCc2ccc(Cl)cc2)CC1 [Compound 6b]	3 ± 1.4 µM	69 ± 4 µM	fold improvement of IC50 versus comparator [1]: over four-fold
CN(Cc1ccsc1)CC1CCN(CCc2cccc(Br)c2)CC1 [Compound 6c]	3.6 µM	83 ± 6 µM	–
CN(Cc1ccsc1)CC1CCN(CCc2ccc(Br)cc2)CC1 [Compound 6d]	3 ± 0.7 µM	57 ± 4 µM	–
CN(Cc1ccsc1)CC1CCN(CCc2cc(Cl)cc(Cl)c2)CC1 [Compound 6e]	1.6 µM	45 µM	–
CN(Cc1ccsc1)CC1CCN(CCc2cc(Br)cc(Br)c2)CC1 [Compound 6f]	3.4 µM	42 µM	–
CN(Cc1ccsc1)CC1CCN(CCc2ccc(F)c(F)c2)CC1 [Compound 6g]	3 ± 0.2 µM	87 ± 13 µM	fold improvement of IC50 versus comparator [1]: over two-fold; fold improvement of dispersion activity (EC50) versus comparator [2]: over two-fold
CN(Cc1ccsc1)CC1CCN(CCc2c(F)cccc2F)CC1 [Compound 6h]	6.3 ± 0.6 µM	138 ± 18 µM	–
CN(Cc1ccsc1)CC1CCN(Cc2ccccc2F)CC1 [Compound 6i]	8.8 ± 0.8 µM	125 ± 6 µM	–
CN(Cc1ccsc1)CC1CCN(Cc2ccccc2Cl)CC1 [Compound 6j]	2.7 ± 0.7 µM	1810 ± 176 µM	–
CN(Cc1ccsc1)CC1CCN(Cc2ccccc2)CC1 [Compound 6k]	26.7 ± 1.2 µM	> 12000 µM	–
CN(Cc1ccsc1)CC1CCN(CCCc2ccccc2F)CC1 [Compound 6l]	11.5 ± 2.7 µM	221 ± 17 µM	–
CN(Cc1ccsc1)CC1CCN(CCCc2ccccc2Cl)CC1 [Compound 6m]	5.4 ± 1.2 µM	59 ± 4 µM	–
CN(Cc1ccsc1)CC1CCN(CCCc2ccccc2)CC1 [Compound 6n]	78.1 ± 3.7 µM	> 12000 µM	–
CN(Cc1ccsc1)CC1CCN(CCc2ccc(Cl)c(Cl)c2)CC1 [Compound 7a]	1.4 µM	45 ± 2 µM	–
CN(Cc1ccsc1)CC1CCN(CCc2ccc(Cl)cc2Cl)CC1 [Compound 7c]	2.5 ± 0.5 µM	22 ± 2 µM	–

Compound	IC50 [1]	EC50 [2]	also measured
CN(Cc1ccsc1)CC1CCN(CCc2ccccc2C(F)(F)F)CC1 [Compound 7e]	12.7 ± 4.1 µM	60 ± 2 µM	–
CN(Cc1ccsc1)CC1CCN(Cc2ccccc2Br)CC1 [Compound 7f]	4.9 ± 0.8 µM	79 ± 3 µM	–
CN(Cc1ccsc1)CC1CCN(Cc2cccc(Cl)c2)CC1 [Compound 7h]	5.2 ± 1.3 µM	299 ± 21 µM	–
CN(Cc1ccsc1)CC1CCN(Cc2cccc(Br)c2)CC1 [Compound 7i]	6.5 ± 2.9 µM	142 ± 9 µM	–
CN(Cc1ccsc1)CC1CCN(Cc2ccc(F)cc2)CC1 [Compound 7j]	12.9 ± 1.4 µM	443 ± 52 µM	–
CN(Cc1ccsc1)CC1CCN(Cc2ccc(Cl)cc2)CC1 [Compound 7k]	5.9 ± 2.8 µM	934 ± 26 µM	–
CN(Cc1ccsc1)CC1CCN(Cc2ccc(Br)cc2)CC1 [Compound 7l]	8.5 ± 1.8 µM	127 ± 13 µM	–
CN(Cc1ccsc1)CC1CCN(Cc2cc(F)cc(F)c2)CC1 [Compound 7m]	14.2 ± 1.7 µM	> 12000 µM	–
CN(Cc1ccsc1)CC1CCN(Cc2c(F)cccc2F)CC1 [Compound 7n]	> 200 µM	> 12000 µM	–
CN(Cc1ccsc1)CC1CCN(Cc2ccc(F)c(F)c2)CC1 [Compound 7o]	7.2 ± 1.8 µM	3800 ± 204 µM	–
CN(Cc1ccsc1)CC1CCN(Cc2cc(Cl)ccc2Cl)CC1 [Compound 7p]	15.8 ± 1.4 µM	196 ± 27 µM	–
CN(Cc1ccsc1)CC1CCN(Cc2cccc(Cl)c2Cl)CC1 [Compound 7r]	2.7 ± 1.4 µM	70 ± 8 µM	–
CN(Cc1ccsc1)CC1CCN(Cc2ccc(Br)c(Br)c2)CC1 [Compound 7s]	11.9 ± 1.7 µM	32 ± 1 µM	–
CN(Cc1ccsc1)CC1CCN(Cc2cccc(F)c2F)CC1 [Compound 7t]	146 µM	870 ± 79 µM	–
CN(Cc1ccsc1)CC1CCN(Cc2ccccc2C(F)(F)F)CC1 [Compound 7u]	20.9 µM	140 ± 39 µM	–
CN(Cc1ccsc1)CC1CCN(CCc2ccccc2I)CC1 [Compound 8a]	4.3 µM	60 ± 2 µM	–
CN(Cc1ccsc1)CC1CCN(CCc2cccc(I)c2)CC1 [Compound 8b]	4 ± 0.7 µM	44 ± 2 µM	–
CN(Cc1ccsc1)CC1CCN(CCc2ccc(I)cc2)CC1 [Compound 8c]	2.6 µM	89 ± 10 µM	–
CN(Cc1ccsc1)CC1CCN(Cc2ccccc2I)CC1 [Compound 8d]	5.4 ± 0.5 µM	79 ± 5 µM	–
CN(Cc1ccsc1)CC1CCN(Cc2cccc(I)c2)CC1 [Compound 8e]	10 ± 4.5 µM	92 ± 3 µM	–
